# Measurements reported in patent US12061201B2, “Fluorescent probes for the visualization of FtsZ in gram-positive and gram-negative bacterial pathogens” (Rutgers, The State University of New Jersey, priority 2019, dated 2024).
# Like-named read-outs stand apart in the source and are kept apart here.
# Tests used:
# [1] = molecular target: Streptococcus pyogenes FtsZ (SpyFtsZ) (Streptococcus pyogenes, UniProt Q99YV7); test: Fluorescence anisotropy binding of BOFP to FtsZ; conditions: for Kd: 50 mM Tris-HCl (pH 7.6), 50 mM KCl
# Experimental: (§1) Fluorescence anisotropy assay for determining the affinities and thermodynamics associated with the binding of BOFP to FtsZ proteins. Fluorescence anisotropy experiments were performed using an AVIV model ATF105 spectrofluorometer at 15, 25, or 37° C. In these experiments, bandwidths were set to 4 nm in both the excitation and emission directions, with the excitation and emission wavelengths being set at 488 nm and 510 nm, respectively. BOFP (0.1 μM) was titrated with increasing concentrations (ranging from 0 to 12 μM) of FtsZ in 120 μL of buffer containing 50 mM Tris-HCl (pH 7.6) and 50 mM KCl. After each protein addition, the samples were equilibrated for 3 minutes, whereupon the fluorescence anisotropy was measured.
# (§2) [formula] In this equation, r0 is the anisotropy of the protein-free compound, r∞ is the anisotropy of the compound in the presence of an infinite concentration of FtsZ, [C]tot is the total concentration of the compound, and [P]tot is the total concentration of protein with each addition. These analyses yielded the equilibrium dissociation constant (Kd) for each binding reaction.
# (§3) The binding free energy (ΔG) at temperature T was derived from the corresponding Kd value determined at T using the following relationship:
# (§4) [formula] The binding enthalpy (ΔH) and entropy (ΔS) were derived from linear fits of the ln(1/Kd) vs. 1/T plots shown in FIGS. 3f and 5e using the following relationship:
# (§5) A quartz ultra-micro cell (Hellma) with a 2×5 mm aperture and a 15 mm center height was used for all measurements. The pathlengths in the excitation and emissions directions were 1 and 0.2 cm, respectively. All steady-state anisotropy experiments were conducted in at least triplicate, with the reported anisotropies reflecting the average values.
# [2] = molecular target: T1, Enterococcus faecium FtsZ (EfmFtsZ) (Enterococcus faecium, UniProt Q3Y2I1); test: Fluorescence anisotropy binding of BOFP to FtsZ; conditions: for Kd: 50 mM Tris-HCl (pH 7.6), 50 mM KCl
# T1 sequence (Q3Y2I1 1-413): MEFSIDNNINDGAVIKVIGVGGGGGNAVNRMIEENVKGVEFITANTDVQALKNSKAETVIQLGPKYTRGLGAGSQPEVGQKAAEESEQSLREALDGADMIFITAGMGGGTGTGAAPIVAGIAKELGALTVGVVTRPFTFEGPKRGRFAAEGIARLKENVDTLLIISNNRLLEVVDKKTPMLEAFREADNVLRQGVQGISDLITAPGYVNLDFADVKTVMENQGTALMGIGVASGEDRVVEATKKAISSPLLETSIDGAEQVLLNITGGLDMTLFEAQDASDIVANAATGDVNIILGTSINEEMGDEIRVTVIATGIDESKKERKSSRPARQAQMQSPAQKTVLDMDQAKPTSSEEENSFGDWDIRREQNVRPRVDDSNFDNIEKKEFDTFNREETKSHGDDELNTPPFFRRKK
# Experimental: as §1, §2, §3, §4, §5
# [3] = molecular target: T2, Streptococcus agalactiae FtsZ (SagFtsZ) (Streptococcus agalactiae, UniProt Q8E183); test: Fluorescence anisotropy binding of BOFP to FtsZ; conditions: for Kd: 50 mM Tris-HCl (pH 7.6), 50 mM KCl
# T2 sequence (Q8E183 1-426): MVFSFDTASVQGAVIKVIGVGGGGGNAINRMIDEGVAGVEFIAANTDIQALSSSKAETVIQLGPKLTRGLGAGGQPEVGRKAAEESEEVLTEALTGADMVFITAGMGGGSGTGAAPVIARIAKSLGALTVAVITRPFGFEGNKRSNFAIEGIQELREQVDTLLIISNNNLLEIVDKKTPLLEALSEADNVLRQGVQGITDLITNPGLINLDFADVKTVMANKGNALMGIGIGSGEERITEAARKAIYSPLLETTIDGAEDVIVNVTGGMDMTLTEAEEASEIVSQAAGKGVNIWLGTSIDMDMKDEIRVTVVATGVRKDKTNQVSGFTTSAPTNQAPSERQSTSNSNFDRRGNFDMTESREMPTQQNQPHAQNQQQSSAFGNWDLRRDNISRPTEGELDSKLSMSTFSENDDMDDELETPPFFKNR
# Experimental: as §1, §2, §3, §4, §5
# [4] = molecular target: Enterococcus faecalis FtsZ (EfsFtsZ) (Enterococcus faecalis, UniProt O08439); test: Fluorescence anisotropy binding of BOFP to FtsZ; conditions: for Kd: 50 mM Tris-HCl (pH 7.6), 50 mM KCl
# Experimental: as §1, §2, §3, §4, §5
# [5] = test system: FtsZ in E. faecium ATCC 19434 cells; test: Fluorescence microscopy FtsZ visualization in live cells; format: cell-based; conditions: 1 μg/mL (1.3 μM) BOFP, 5 minutes
# Experimental: Fluorescence microscopy assay for visualizing FtsZ and monitoring cell division in live Gram-positive and Gram-negative bacterial cells using BOFP. All fluorescence microscopy experiments were conducted using an Olympus BX50 microscope equipped with an X-cite Exacte 200W mercury lamp, a 100× Olympus UPLSAPO oil immersion objective (1.40 aperture), and a Chroma ET-EGFP (FITC/Cy2) filter. Images were captured using a QImaging Retiga R3 charge-coupled device (CCD) camera and the Ocular-Version 2.0 software package (QImaging).
# For visualizing FtsZ in Gram-positive bacteria using BOFP, the bacterial cells were grown to log-phase in media suitable for each individual pathogen. Specifically, S. aureus NRS705 was grown in tryptic soy broth (TSB), E. faecalis ATCC 29212 and E. faecium ATCC 19434 were grown in lactobacilli MRS broth, S. agalactiae ATCC 12386 and S. pneumoniae ATCC 49619 were grown in TH broth, and S. pyogenes ATCC 19615 was grown in CAMH broth supplemented with 3% (v/v) LHB. For each Gram-positive bacterial strain, a total of 1 mL of cell culture was centrifuged at 15,000×g for 1 minute and washed 2-3 times with 1 mL of PBS. After the final wash, the pelleted cells were resuspended in 500 μL of PBS containing 1 μg/mL of BOFP and incubated in the dark for 5 minutes at room temperature. The cells were then centrifuged at 15,000×g for 1 minute, washed twice with 1 mL of PBS, and subsequently resuspended in 200 μL of PBS. 8 μL of this final cell suspension was then spread on a 0.25 mm layer of 1.5% high-resolution agarose (Sigma) in PBS, which was mounted on a standard 75×25×1 mm microscope slide (Azer Scientific) using a 1.7×2.8×0.025 cm Gene Frame (ThermoFisher). A 24×40 mm cover slip (Azer Scientific) was then applied to the agarose pad to prepare the slide for microscopic visualization.
# [6] = linear fit of ln(1/Kd) vs. 1/T, Eq. 3
# Chain of Streptococcus pyogenes FtsZ (SpyFtsZ) (Q99YV7 entry or part of it): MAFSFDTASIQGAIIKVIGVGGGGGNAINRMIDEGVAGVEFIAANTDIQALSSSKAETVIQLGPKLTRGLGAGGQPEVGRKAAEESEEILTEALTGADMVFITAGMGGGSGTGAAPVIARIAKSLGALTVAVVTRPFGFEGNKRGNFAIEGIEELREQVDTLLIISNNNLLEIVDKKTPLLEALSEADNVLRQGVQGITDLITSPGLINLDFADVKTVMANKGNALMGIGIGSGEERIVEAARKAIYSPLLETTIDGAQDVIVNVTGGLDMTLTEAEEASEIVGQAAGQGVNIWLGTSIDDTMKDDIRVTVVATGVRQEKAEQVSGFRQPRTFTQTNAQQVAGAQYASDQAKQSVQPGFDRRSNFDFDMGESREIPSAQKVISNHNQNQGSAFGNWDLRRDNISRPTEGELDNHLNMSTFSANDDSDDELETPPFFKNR
# Chain of Enterococcus faecalis FtsZ (EfsFtsZ) (O08439 whole entry): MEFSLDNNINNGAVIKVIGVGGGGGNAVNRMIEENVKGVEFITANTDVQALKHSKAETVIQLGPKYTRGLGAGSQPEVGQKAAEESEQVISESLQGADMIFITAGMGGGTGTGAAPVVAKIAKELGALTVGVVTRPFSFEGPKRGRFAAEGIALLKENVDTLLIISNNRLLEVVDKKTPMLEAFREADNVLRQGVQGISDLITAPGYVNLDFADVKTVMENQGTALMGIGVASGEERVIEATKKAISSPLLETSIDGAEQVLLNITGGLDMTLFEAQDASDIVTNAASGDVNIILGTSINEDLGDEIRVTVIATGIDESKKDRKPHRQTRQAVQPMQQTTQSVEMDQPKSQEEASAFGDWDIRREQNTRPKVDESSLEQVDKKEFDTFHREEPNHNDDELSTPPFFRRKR
smiles,measurement,setting,value
"CC1=CC(C)=[N+]2C1=Cc1ccc(CCC(=O)OCC(Oc3ccc(F)c(C(N)=O)c3F)c3nc(-c4ccc(C(F)(F)F)cc4)c(Br)o3)n1[B-]2(F)F (stereo not drawn) [BOFP, 2-(5-bromo-4-(4-(trifluoromethyl)phenyl)-oxazol-2-yl)-2-(3-carbamoyl-2,4-difluorophenoxy)ethyl 3-(5,5-difluoro-7,9-dimethyl-5H-5λ^4,6λ^4-dipyrrolo[1,2-c:2′,1′-f][1,3,2]diazaborinin-3-yl)propanoate]",ΔH contribution to the observed ΔG of binding,[1],> 50%
same,Kd,"[1]; 15° C., read-out: Kd −15° C.",910 ± 60 nM
same,Kd,"[1]; 25° C., read-out: Kd −25° C.",1310 ± 80 nM
same,Kd,"[1]; 37° C., read-out: Kd −37° C.",1550 ± 80 nM
same,ΔG,"[1]; T = 310K (37° C.), Eq. 2",-8.2 ± 0.1 kcal/mol
same,ΔH,[1]; [6],-4.3 ± 1.1 kcal/mol
same,ΔS,[1]; [6],+12.8 ± 3.7 cal/mol · K
same,ΔS contribution to the observed ΔG of binding,[2],> 50%
same,Kd,"[2]; 15° C., read-out: Kd −15° C.",2500 ± 140 nM
same,Kd,"[2]; 25° C., read-out: Kd −25° C.",2620 ± 80 nM
same,Kd,"[2]; 37° C., read-out: Kd −37° C.",3140 ± 220 nM
same,ΔH,[2]; [6],-1.9 ± 0.6 kcal/mol
same,ΔS,[2]; [6],+19.2 ± 1.9 cal/mol · K
same,ΔH contribution to the observed ΔG of binding,[3],> 50%
same,Kd,"[3]; 15° C., read-out: Kd −15° C.",620 ± 50 nM
same,Kd,"[3]; 25° C., read-out: Kd −25° C.",1020 ± 90 nM
same,Kd,"[3]; 37° C., read-out: Kd −37° C.",1310 ± 40 nM
same,ΔH,[3]; [6],-6.6 ± 0.6 kcal/mol
same,ΔS,[3]; [6],+5.4 ± 2.0 cal/mol · K
same,enthalpic contribution (ΔH) to the observed ΔG of binding,[4],100%
same,Kd,"[4]; 15° C., read-out: Kd −15° C.",1720 ± 60 nM
same,Kd,"[4]; 25° C., read-out: Kd −25° C.",3050 ± 250 nM
same,Kd,"[4]; 37° C., read-out: Kd −37° C.",4620 ± 120 nM
same,ΔG,"[4]; T = 310K (37° C.), Eq. 2",-7.6 ± 0.1 kcal/mol
same,ΔH,[4]; [6],-7.9 ± 1.0 kcal/mol
same,ΔS,[4]; [6],−1.2 ± 3.3 cal/mol · K
same,FtsZ labeling (fluorescence staining) in live cells,[5],bright bands of fluorescence staining were clearly visible at midcell
